Experimental data as given in paper PMC2862740, “Furin Targeted Drug Delivery for Treatment of Rhabdomyosarcoma in a Mouse Model” (PLoS ONE, 2010).
“Also recorded” adds a separate entry of the source. Positions of bridges follow the written chain, without caps; N, C: chain ends. No end group written: not given here.

Columns and labels:
RD cells = test: phage binding to RD cells; type: cell-based
Description: (§1) Figure 1 Validation of selected phages binding on RMS cells in vivo and in vitro. (A) Quantification of binding of single phage clones to different cell lines. Six phages selected from in vitro and in vivo screenings were validated individually in binding assays to three RMS cell lines (embryonal RMS: RD; alveolar RMS: Rh30 and Rh4) as well as to normal myoblasts (SkMC-c) and fibroblast cells (MRC-5). Phage clones are ordered according to the frequency of occurrence. Binding was calculated over non-recombinant T7, depicted are mean values ± SD of three independent experiments. (B) RMS-P3 and RMS-P6 phage distribution in RD mouse xenografts. Homing of phages to tumor was compared to control organs. Binding was normalized over phage T7 and tissue weight. Mean values ± SD of four independent experiments are shown. Numerical values for tumor to organ ratios are indicated above the bars. (C) Validation of RMS-P3 peptide sequence by competition of phage binding. 10^6 RD cells were incubated for 30 min with increasing concentrations of RMS-P3 peptide ([…]) or control peptide ([…]). Then, phages (10^9 pfu) were added for 1 h. Phage binding was normalized over non-recombinant T7. Data are presented as percentage of maximal phage binding obtained in the absence of synthetic peptide. Error bars indicate mean ± SD from three independent experiments. […]
Figure 3 Identification of the receptor for RMS-P3. […] Phage binding was quantified over non-recombinant T7 and compared to the binding of wild type phage RMS-P3. […] After tail vein injection of both FITC-RMS-P3/RR or control peptide RMS-P3/AA and circulation of 10 min, mice were perfused, tumors and control organs were dissected and FITC-peptide distribution (green) was evaluated in cryosections under fluorescence microscopy. […] (C) Expression of proprotein convertases (PCs) measured by microarray profiling of 9 RMS cell lines and 30 RMS biopsy samples. […] Immature membrane-bound furin was detected at 103 kD, mature furin at 97 kD. […]

[1] = test system: RD xenograft tumors and control organs; test: FITC-peptide distribution in xenograft mice; type: in vivo, mouse; details: RD xenografts, i.v., 10 min circulation
Description: Figure 2 FITC-labeled RMS-P3 binding in vitro and distribution in vivo. (A) Visualization of FITC-RMS-P3 peptide binding in normal and cancer cells in vitro. Cultured myoblasts (SkMC-c), fibroblasts (MRC-5), RMS cells (RD) and breast carcinoma cells (MDA-MB 231) were incubated with 100 nM FITC-RMS-P3 peptide for 1 h at 37°C. Fluorescence microscopy of fixed cells is shown. (B) Living RD cells were incubated with FITC-RMS-P3 peptide, subsequently fixed and stained with giantin (red). Colocalization is shown in the merged picture by yellow. Blue staining (DAPI) indicates the nuclei. Magnifications: 40x, scale bars: 20 µm. (C) Distribution of FITC-RMS-P3 and control peptide FITC-RMS-Pctrl in mice xenografts of RD cells. FITC-RMS-P3 or control FITC-RMS-Pctrl peptide were injected i.v. and after 10 minutes of circulation, mice were perfused and tumor and control organs were collected. Cryosections were double-labeled with mouse endothelial vessels markers CD31 and MECA-32 (red). Nuclear staining by DAPI is shown in blue. Magnifications: 40x, scale bars: 20 µm.
Figure 3 Identification of the receptor for RMS-P3. (A) Alanine-scan of the RMS-P3 sequence. RMS-P3 was mutated by replacing each amino acid residue with alanine (codon GCT). All phage mutants were tested individually for binding to RD cells in vitro. Mutated residues are indicated in bold. Phage binding was quantified over non-recombinant T7 and compared to the binding of wild type phage RMS-P3. Depicted are mean values ± SD of three independent experiments. […] (B) FITC-RMS-P3/RR and FITC-RMS-P3/AA distribution in RD xenograft mice. After tail vein injection of both FITC-RMS-P3/RR or control peptide RMS-P3/AA and circulation of 10 min, mice were perfused, tumors and control organs were dissected and FITC-peptide distribution (green) was evaluated in cryosections under fluorescence microscopy. Blood endothelial stainings (CD31 and MECA32) are shown in red, nuclear staining in blue (DAPI). Magnification: 20x, scale bar 50 µm. (C) Expression of proprotein convertases (PCs) measured by microarray profiling of 9 RMS cell lines and 30 RMS biopsy samples. Expression of PCs recognizing the cleavage site R(X)(R/K)(R/K) were considered. Each cell line or biopsy is represented by one data point. (D) Furin expression in different cell lines. Normal myoblasts (SkMC-c), fibroblasts (MRC-5), RMS cell lines (RD, Rh4, Rh30), furin-deficient colorectal carcinoma cells (LoVo) and furin-positive breast carcinoma cells (MBA-MB 231) were tested for furin expression by qRT-PCR (upper graph). […] Western blot (lower panels). Immature membrane-bound furin was detected at 103 kD, mature furin at 97 kD. PCNA was used as loading control.
Figure 6 FITC-RMS-P3/RR and FITC-RMS-P3/AA distribution in mice bearing RD xenografts. Peptides were injected i.v. and after circulation the mice were perfused, tumors and control organs were removed and peptide distribution was evaluated on cryosections by fluorescence microscopy. Depicted are overlay images (B, upper left panel) and single channel pictures. FITC-peptide stainings (green), either furin or endothelial stainings (CD31, MECA32) in red and cell nuclei in blue (DAPI) are shown. Magnification: 40x, scale bars 50 µm.
Supplementary file pone.0010445.s002.tif: Figure S2 Subcellular localization of FITC-RMS-P3 peptide. (A, B) FITC-RMS-P3/RR cell surface and intracellular localization. RD cells were incubated with 100 nM FITC-RMS-P3 peptide in vitro for 30 min at 4°C (A) or 37°C (B), respectively. Fixed cells were stained with undiluted 5.1H11 hybridoma supernatant against the human muscle-specific cell surface antigen N-CAM (red). A secondary rabbit anti-mouse Cy3 antibody (1∶300, Invitrogen) was used for detection. […] Cell nuclei were visualized with DAPI. Nuclei are indicated in grey. Magnification: 63x, scale bars: 20 µm. […]

membrane-bound furin = test: peptide affinity chromatography, RD-FUR lysate; type: binding; details: western blot, 97kDa
Description: (§2) Figure 5 RMS-P3/RR peptide binds directly to furin and inhibits its activity. Lysates of RD-FUR cells (approximately 1 mg of total protein, upper rows) or purified recombinant furin (250 ng; lower rows) were loaded on a RMS-P3/RR column (A) or on the control peptide column RMS-P3/AA (B). The columns were washed 10 times to remove unbound furin. The loaded RMS-P3/RR-column was eluted first with control peptide RMS-P3/AA, then with peptide RMS-P3/RR. The RMS-P3/AA column was eluted first with RMS-P3/RR and subsequently cross-eluted with the control peptide RMS-P3/AA. The presence of furin in aliquots from the columns (1) after binding, (2) flow through, (3) last wash, (4) control elution and (5) competitive elution with RMS-P3/RR (in A) and […] (in B), respectively, was detected by western blotting. (C) Fixed amounts of recombinant furin (3.3U) were incubated with increasing concentrations of RMS-P3/RR peptide or with control peptide (RMS-P3/AA). Furin activity was measured with the fluorogenic substrate Boc-RRVR-AMC at excitation 370 nm/emission 460 nm. The results of three independent experiments ± SD are shown.
(§3) RMS-P3/RR or control peptide RMS-P3/AA were dissolved in 0.2 M phosphate buffer pH 7.2 to 1 mg/ml and covalently linked to NHS-activated sepharose matrix SpinTrapTM (GE Healthcare, Amersham Biosciences, Switzerland). […]

recombinant human furin [2] = test: peptide affinity chromatography, recombinant furin; type: binding; details: recombinant human furin without membrane-domain (81 kD), overnight at 4°C, western blot
Description: as §2, §3

MDA-MB 231 cells = test: phage binding to breast carcinoma cells; type: cell-based; details: compared to myoblasts and fibroblasts; p<0.05
Description: (§4) Supplementary file pone.0010445.s001.tif: Figure S1 Phage selection and validation on RMS cells in vivo and in vitro. (A) Biopanning on RD cells in vitro after negative selection on myoblasts (panning I) and (B) fibroblasts (panning II). Enrichment was calculated over non-recombinant phage T7. (C) In vivo selection in Rh4 xenografts. Phages from in vitro selection before enrichment were pooled and used for in vivo selection in Rh4 xenografts. Phages were injected in the tail vein and after 10 min circulation unbound phages were washed by perfusion. Phage binding to tumors and control organs was calculated over non-recombinant phage T7. (D) RMS-P3 and RMS-P6 phage distribution in Rh4 xenografts. Homing of phages in mouse xenografts bearing Rh4 tumors was determined and compared to control organs. Binding was normalized over phage T7 and tissue weight. Mean values of three independent experiments are shown. Numerical values for tumor to organ ratios are indicated above the bars. (E) Quantification of binding of RMS-P3 phage to a panel of tumor cell lines: RMS (RD, Rh30, Rh4), breast tumor (MDA-MB 231), glioblastoma (U87MG), melanoma (A365); and normal myoblasts (SkMC-c) and fibroblast cells (MRC-5). Mean values ± SD of three independent experiments are depicted. (0.55 MB TIF) Click here for additional data file.

U87MG cells = test: phage binding to glioblastoma cells; type: cell-based; details: compared to myoblasts and fibroblasts; p<0.05
Description: as §4

A365 cells = test: phage binding to melanoma cells; type: cell-based; details: compared to myoblasts and fibroblasts; p<0.05
Description: as §4

RD xenograft tumors = test: phage homing in RD xenografts; type: in vivo, mouse; details: for phage binding to tumors versus any other organ: RD (or Rh4) xenografts, One-way ANOVA and Tukey-Kramer HSD
Description: Figure 1 Validation of selected phages binding on RMS cells in vivo and in vitro. (A) Quantification of binding of single phage clones to different cell lines. Six phages selected from in vitro and in vivo screenings were validated individually in binding assays to three RMS cell lines (embryonal RMS: RD; alveolar RMS: Rh30 and Rh4) as well as to normal myoblasts (SkMC-c) and fibroblast cells (MRC-5). Phage clones are ordered according to the frequency of occurrence. Binding was calculated over non-recombinant T7, depicted are mean values ± SD of three independent experiments. (B) RMS-P3 and RMS-P6 phage distribution in RD mouse xenografts. Homing of phages to tumor was compared to control organs. Binding was normalized over phage T7 and tissue weight. Mean values ± SD of four independent experiments are shown. Numerical values for tumor to organ ratios are indicated above the bars. (C) Validation of RMS-P3 peptide sequence by competition of phage binding. 10^6 RD cells were incubated for 30 min with increasing concentrations of RMS-P3 peptide ([…]) or control peptide ([…]). Then, phages (10^9 pfu) were added for 1 h. Phage binding was normalized over non-recombinant T7. Data are presented as percentage of maximal phage binding obtained in the absence of synthetic peptide. Error bars indicate mean ± SD from three independent experiments. […] TEXT PRINTED IN THE PICTURE: (B) RMS-P6: tumor: 1; muscle: 1/6; kidney: 1/8; brain: 1/28; skin: 1/12 | (B) RMS-P3: tumor: 1; muscle: 1/24; kidney: 1/15; brain: 1/12; skin: 1/10 DOUBTS OF THE COPYIST ABOUT THIS PICTURE: Panel B: the picture prints no measure for the numbers over the bars. Each tissue name was assigned from the bar fill and the order of the printed key. / RMS-P6, brain: 1/28, the last digit may be 8 or 6 (small print)
Phage (10^10 pfu) from in vitro biopannings were tail vein injected into mice bearing size-matched RMS tumors (500 mm^3) as described in [57].

Rh4 xenograft tumors = test: phage homing in Rh4 xenografts; type: in vivo, mouse; details: aRMS (Rh4) xenograft
Description: as §4

recombinant human furin [3] = test: furin activity, fluorogenic substrate Boc-RRVR-AMC; type: biochemical
Description: The enzymatic activity of furin was determined by the cleavage of the fluorogenic substrate Boc-RRVR-AMC (Alexis biochemicals) in presence or absence of peptides. Human recombinant furin (3.3U for reaction; Alexis biochemicals) was preincubated for 15 minutes at RT with the peptide RMS-P3/RR or the peptide RMS-P3/AA as negative control at increasing concentrations. For each assay, the same concentration of substrate (100 µM) was added to a solution containing 50 mM Tris HCl with 1 mM CaCl2 (pH 7) in a total volume of 100 µl. The reaction was followed for 1h while measuring the fluorescence every 10 minutes in a spectrofluorometer at excitation 370 nm/emission 460 nm.

Rh4 cells = test: phage binding to Rh4 cells; type: cell-based; details: three independent experiments
Description: as §1

Rh30 cells = test: phage binding to Rh30 cells; type: cell-based; details: three independent experiments
Description: as §1

[4] = test system: RMS cells (RD, Rh4, Rh30); test: phage binding to RMS cell lines versus normal cells; type: cell-based; details: control phage
Description: as §1

[5] = biological target: recombinant human furin without membrane-domain (81 kD) (human) (UniProt P09958)

## CMGTINTATAAC (disulfide 1-12 (inferred)) [RMS-P3/AA]
RD cells; alanine-scan, RD cells, three independent experiments, p<0.05
  decrease in phage binding compared to RMS-P3: 70 fold
[1]
  peptide uptake in kidney: found in the kidneys
[1]; cryosections
  peptide accumulation in tumor: did not accumulate in the tumor; also recorded: No fluorescence was detectable
membrane-bound furin
  furin in competitive eluate from peptide column: not the case
Recombinant human furin [2]
  binding of recombinant furin to peptide column: did not bind recombinant furin

## CMGTINTRTKKC (disulfide 1-12 (inferred)) [phage RMS-P3]
MDA-MB 231 cells
  phage binding to breast carcinoma cells: significant binding; also recorded: very good binding
U87MG cells
  phage binding to glioblastoma cells: significant binding; also recorded: very good binding
A365 cells
  phage binding to melanoma cells: significant binding; also recorded: very good binding
RD xenograft tumors
  phage binding to tumors versus any other organ: bound significantly better to tumors than to any other organ
RD xenograft tumors; phage, eRMS (RD) xenograft
  tumor/muscle ratio: 24 fold
Rh4 xenograft tumors
  tumor/muscle ratio: 24 fold

## CMGTINTRTRRC (disulfide 1-12 (inferred)) [RMS-P3/RR]
RD cells; both Lys replaced by Arg, One-way ANOVA, Tukey Kramer HSD, p<0.05 vs all other alanine mutants
  phage binding to RD cells compared to RMS-P3: no significant difference in binding to RD cells
membrane-bound furin
  furin in competitive eluate from peptide column: competitive eluates contained detectable amounts of membrane-bound furin
Recombinant human furin [2]
  binding of recombinant furin to peptide column: detected a furin band in the specific eluate
Recombinant human furin [3]; 100 µM peptide, % of the control, furin 3.3U, 15 min preincubation RT, substrate 100 µM, 50 mM Tris HCl, 1 mM CaCl2, pH 7, three independent experiments
  furin activity remaining: 14 % of the control
Recombinant human furin [3]; increasing concentrations
  effect on furin activity: concentration dependent decrease of furin activity

## CMGTTNTRTKKC (disulfide 1-12 (inferred)) [RMS-P6]
RD cells; RD cells, three independent experiments
  phage binding compared to non-recombinant phage T7: 1270 fold
Rh4 cells
  phage binding compared to non-recombinant phage T7: 230 fold
Rh30 cells
  phage binding compared to non-recombinant phage T7: 120 fold
RD xenograft tumors
  phage binding to tumors versus any other organ: bound significantly better to tumors than to any other organ

## CSPNNTRRPNKC (disulfide 1-12 (inferred)) [phage RMS-Pctrl, phage displaying […], arose spontaneously during the in vitro screening; negative control]
[4]
  binding to tumor cells: no binding to tumor cells

B1: RMS-P3/RR peptide (peptide)
peptide: CMGTINTRTRRC
modifications: not fully specified (bridges); also: cyclic peptide, mode of cyclisation not given here
[5]
  furin activity (cleavage of the fluorogenic substrate Boc-RRVR-AMC by 3.3U recombinant furin) with increasing concentrations of RMS-P3/RR (10-100 µM); activity left at 100 µM (% of the control): 14
